This test concerns the target Acetylcholinesterase (Electrophorus electricus, UniProt O42275).
Sequence of Acetylcholinesterase (O42275 whole entry): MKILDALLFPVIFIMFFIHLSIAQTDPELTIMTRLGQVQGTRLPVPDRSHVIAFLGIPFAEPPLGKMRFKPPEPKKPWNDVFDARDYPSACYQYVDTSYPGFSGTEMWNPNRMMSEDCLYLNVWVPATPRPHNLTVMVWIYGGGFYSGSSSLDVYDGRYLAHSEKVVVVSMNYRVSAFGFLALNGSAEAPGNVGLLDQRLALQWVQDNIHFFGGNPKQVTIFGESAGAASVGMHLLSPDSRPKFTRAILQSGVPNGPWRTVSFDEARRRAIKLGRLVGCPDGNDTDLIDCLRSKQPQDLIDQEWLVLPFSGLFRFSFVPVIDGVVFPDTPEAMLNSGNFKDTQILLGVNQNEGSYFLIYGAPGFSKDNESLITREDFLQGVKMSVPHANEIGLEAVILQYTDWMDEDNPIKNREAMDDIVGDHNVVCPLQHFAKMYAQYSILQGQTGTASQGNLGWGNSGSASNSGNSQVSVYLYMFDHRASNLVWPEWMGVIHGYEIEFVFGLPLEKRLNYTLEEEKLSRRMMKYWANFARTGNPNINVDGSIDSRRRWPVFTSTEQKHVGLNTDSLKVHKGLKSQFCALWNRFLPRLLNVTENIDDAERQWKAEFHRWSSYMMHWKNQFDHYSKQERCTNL
Description: Inhibition of electric eel acetylcholinesterase using acetylthiocholine iodide as substrate after 10 mins by Ellman's spectrophotometric method
In the case of `CCCCC[C@H](O)/C=C/CCCCCCCc1cccc(O)c1C(=O)O`, 3.18 µM corresponded to half-maximal inhibition (IC50).
For `CCCC/C=C\CCCCCCCCCc1cccc(O)c1`, the IC50 (commonly the concentration that inhibits the measured activity by half) came out at 17.2 µM.
On to `CCCCCC/C=C\CCCCCCCCCc1cccc(O)c1`, for which the IC50 worked out at 13.1 µM.
Regarding `CCCC/C=C\CCCCCCCCCc1cccc(OC)c1C(=O)OC`, the half-maximal inhibitory concentration (IC50) was 358 µM.
Turning to `CCCCCC/C=C\CCCCCCCCCc1cccc(OC)c1C(=O)OC`, the midpoint of inhibition, the IC50, lay at 303 µM.
Turning to `CCCC/C=C\CCCCCCCCCc1cccc(OC)c1`, the half-maximal inhibitory concentration (IC50) was found to be 178 µM.
With `CCCCC[C@H](O)/C=C/CCCCCCCc1cccc(OC)c1C(=O)OC`, the concentration for half-maximal inhibition (IC50) was determined as 342 µM.

Source of the values: ChEMBL document CHEMBL1795324, “New class of acetylcholinesterase inhibitors from the stem bark of Knema laurina and their structural insights” (Bioorg Med Chem Lett, 2011).
